Measurements reported in a melting point compilation (Tetko et al.; mined from patent text by program, amines drawn as free bases though some values may be those of a salt).

Point of comparison: COc1cc2cc(C(=O)OCc3ccccc3)[nH]c2cn1, melting point 182 °C. Against it:
- CC(=O)[C@@H]1C(=O)N(C(=O)OC(C)(C)C)[C@@H]1c1ccccc1 — lower, 63 to 64 °C
- Cc1ccc([C@H](CC(=O)O)NC(=O)Nc2c(OCc3ccccc3)cc(C)n(Cc3ccccc3)c2=O)cc1 — lower, 124 to 126 °C
- COC(=O)CCCCCC(c1ccccc1)c1c(C)c(O)c(C)c(C)c1OC(C)=O (centres undefined) — lower, 146 to 148 °C
- CCC(Oc1ncn(-c2ccc(Cl)c(Cl)c2)n1)C(=O)O (centres undefined) — higher, 232 to 234 °C
- COc1ccc2c(c1)COc1ccc(OCc3ccc4ccc(Cl)cc4n3)cc1C2SCCC(=O)O (centres undefined) — lower, 177 to 179 °C
- Cc1ccc(-c2cc(Br)c3c(c2)CCC(=O)N3)c(C)n1 — higher, 194 to 195 °C
- CC(=O)Oc1cc(CCc2ccccc2)cc(OC(C)=O)c1OC(C)=O — lower, 79.5 to 80 °C
- CC=CCn1c(C)c(C)c2cnnc(OCc3ccc(F)cc3F)c21 — lower, 93 to 95 °C
- CCSc1nc(N)nc2c1ncn2C1C=CC(CO)C1 (centres undefined) — lower, 123 to 125 °C
- NC(=O)N1C(=O)C(C(=O)c2ccco2)c2nc(Cl)ccc21 (centres undefined) — higher, 248 to 260 °C
- COc1ccc2c(c1)c(CC(=O)OC(C)(C)C)c(C)n2C(=O)c1ccc(Cl)cc1 — lower, 103 to 104 °C
- CCCCc1nc(CO)c(C(N)=O)n1Cc1ccc(-c2ccccc2C(=O)OC(C)(C)C)cc1 — higher, 222 to 224 °C
- CC(=O)N1CCC(Oc2ccc([N+](=O)[O-])cc2)(c2ccccc2)CC1 — lower, 145 to 150 °C
- CN(CCC(Oc1ccc(C(F)(F)F)cc1)c1ccccc1)Cc1ccccc1 (centres undefined) — lower, 42 to 44 °C
- O=C(NCCC1CCCCCCCCCCC1)C1=C(O)COC1=O — lower, 135 to 137 °C
- COCCOCc1c(CN(C)CC(O)c2ncccn2)sc2c(=O)c(C(=O)NCc3ccc(Cl)cc3)cn(C)c12 (centres undefined) — lower, 146 to 148 °C
- NC(=O)CN(CCCCCCNc1nsc2nccn12)S(=O)(=O)c1cccc2ccccc12 — lower, 141 to 144 °C
- CCCCCOc1ccc(-c2ccc(-c3nc(N)nc(N)n3)cc2)cc1 — higher, 246 to 249 °C
- C#C[C@H](Cc1cccc(F)c1)n1nnc2cc3c(cc2c1=O)OCN(C1CC1)C3=O — lower, 168 to 180 °C
- CCOC(=S)Nc1cccc(Cl)c1 — lower, 78 to 79 °C
- C=C(c1ccc(C(=O)OC)cc1)c1ccc2c(c1)C(C)(C)CCC2(C)C — lower, 117 to 118 °C
- COc1ccc2c(c1)N(c1cccc(Cl)c1)C(=O)C2(C)NC(=O)OCc1ccccc1 (centres undefined) — lower, 143 to 144 °C
- COc1ccc(-n2c(-c3sc(Nc4ccc(Cl)cc4)nc3-c3ccccc3)nc3ccccc3c2=O)cc1 — higher, 220 to 221 °C
- CC(CSC(=O)Nc1ccccc1)C(=O)N(CC(=O)O)C1CCCC1 (centres undefined) — lower, 170 to 172 °C
- CC(Cc1ccc(C(C)(C)C)cc1)C[N+]1([O-])CC(C)OC(C)C1 (centres undefined) — lower, 115 to 118 °C
- COc1ccc(CNc2cc(F)cc(CO)c2)cc1 — lower, 93 °C
- COc1ccc(CNC(N)=S)cc1OCc1ccccc1 — lower, 179 to 181 °C
- CC(=O)NC[C@H]1CN(c2ccc(-n3nccc3-c3ccc(C)cc3)c(F)c2)C(=O)O1 — lower, 89.5 to 91.9 °C
- N#CC=Cc1ccc(C=Cc2ccc(Br)cc2)cc1 — higher, 258 °C
- CCN1CC2OC(C3OCCO3)(C1)c1ccccc12 (centres undefined) — lower, 107 to 108 °C
- COc1ccc(-c2ccc(C(=O)Nc3ccc4cc(CN5C(C)(C)CCCC5(C)C)ccc4c3)cc2)cc1 — higher, 212 to 214 °C
- Nc1nc(N)nc(NC2CCCCC2)n1 — lower, 151 °C
- CCn1cc(C(=O)O)c(=O)c2cc(F)c(N3CC4CCCC3CN4)c(F)c21 (centres undefined) — higher, 245 to 250 °C
- CC(C)CCN1C(=O)C(NC(=O)Nc2ccccc2)C(=O)Nc2ccccc21 (centres undefined) — higher, 249 to 250 °C
- COCC1CN(c2ccc(C3CCC4(CC3)OCCO4)nc2)C(=O)O1 (racemic) — lower, 93 to 94 °C
- O=C1NCN2c3ccccc3Oc3cccc1c32 — higher, > 300 °C
- O=C(O)CCCCNC(=O)NCCCCC1CCSS1 (centres undefined) — lower, 125 to 132 °C
- C1=C(CCCN2CCCCC2)c2ccccc2C12CCCCC2 — lower, 146 to 148 °C
